Reference: patent publication US20050192262A1, “Treatment of tumours” (priority 2001, published 2005)

Columns and labels:
[1] = test system: Dunning AT-1 rat prostatic tumour; conditions: sections of treated rat prostatic tumour
Excerpt: Tumours were investigated for Increased apoptosis with the Apop-Tag In situ apoptosis detection kit (Oncor, Gaithersburg, Md.).

[2] = test system: Dunning AT-1, rat prostatic tumour; experiment: Tumour morphology; conditions: Animals I
Experimental: Group 4 served as untreated, tumour-bearing controls. In all treatments equal amounts of PEG 400 (Sigma Chemicals) and ethanol, 0.5 ml was used as vehicle and injected s.c. adjacent to the tumour site.
In group 2 the experiment was terminated after 96 hours and for the remaining groups after 19 days through asphyxiation of rats with carbon dioxide.

PPARγ = target: T1, PPARγ (Mus musculus, UniProt P37238); experiment: Ligand-induced coactivator interaction assay (GST-PPARγ / SRC-1); assay type: biochemical; conditions: for PPARγ-ligand activity of the steroid per se: 10 and 100 μM solutions, no liver cytosol; for band in coactivator assay, steroid incubated with liver cytosol: liver cytosol alone gives weak bands, no PAPS
T1 construct: made in house; host or cells: E. coli strain Y 1090 (GST-PPARγ); TNT Coupled Reticulocyte Lysate System, Promega (SRC-1)
Experimental: ApcDNA3-SRC-1 construct was used as template to prepare (^35S-methionine)-SRC-1 by in vitro transcription and translation using the TNT® Coupled Reticulocyte Lysate System (Promega).
Ligand-induced interactions between GST-PPARγ and SRC-1: To generate GST-PPARγ fusion protein, mouse PPARγcDNA was inserted into the NcoI-HindIII sites of pGEX-KG, and protein was then expressed in E. coli, strain Y 1090. The bacteria were lysed by sonication in TEDG buffer (50 mM Tris (pH 7.4), 1.5 mM EDTA, 10% glycerol, 0.4 M NaCl, 0.1 mM DTT) containing the following protease inhibitors: 0.5 mM PMSF, 1 mM benzamidine, 10 μg/ml leupeptin, 10 μg/ml antipain and […] aprotinin. The lysates were centrifuged at 100,000×g for 60 min in a SW 41 rotor using a Beckman L8-70 M ultracentrifuge. The fusion protein was immobilized on GSH Sepharose beads (Pharmacia) and then incubated with potential ligands in (FIG. 5) 10 mM Tris (pH7.4), 0.12 M KCl, 8% glycerol, 4 mM DTT, and 0.5% CHAPS (buffer AA) for 30 min at room temperature. Thereafter, (^35S methionine) SRC-1 (ca 0.1 μCi) was added, and the beads were incubated for another hour at 4° C. and then washed extensively with buffer A. SDS sample buffer was added to the beads, and the samples boiled prior to separation on 7.5% SDS-PAGE. Radioactivity was detected by autoradiography.
α- and β-AED were investigated in above assay for PPARγ ligand activity in 10 and 100 μM solutions in ethanol 10%, in distilled water. 10 μL aliquots of α-AED-solution or β-AED-solution were also added to a preparation of a male rat liver cytosolic preparation prepared as follows:
A homogenate of a rat liver, a known source of steroid sulphotransferase activity, was prepared using a food processor. The liver homogenate was protected from serine-proteases by the addition of 2 mmol of PMSF, 1 mmol of EDTA and 10 mmol Tris-HCl buffered to a pH of 7.40. The homogenate was prepared at 4° C. and then centrifuged at 15000 g for 10 minutes, followed by centrifugation at 100000 g for an hour at 4° C. The supernatant was divided into test tubes containing one of the following steroids: 17β-AED or 17α-AED in 5 μM concentration together with 100 μL of liver cytosol. One test tube served as positive control and contained SCR-1.
In a second experiment the following steroids were tested for activity: 17α-AED, 17OH-pregnenolone and 5-androstene-3β,7β,17α-triol with and without 10 μL of […] (PAPS), Sigma Chemicals, corresponding to 0.1 mg of PAPS. One test tube served as a positive control and contained SRC-1 Instead of steroid. One test tube contained liver cytosol where the steroid sulphotransferase was inactivated by heating to 45° C. for 30 minutes. Tubes were stirred at 20° C. for 1 hour and the contents were investigated in the receptor-coactivator assay for ligand activity (FIG. 5).
17α-AED was treated in the method described by Arnostova, Libuse M.; Pouzar, Vladimir; Drasar, Pavel. Inst. Org. Chem. Biochem., Czech. Acad. Sci., Prague, Czech. Synth. Commun. (1990), 20(10), 1521-9, where acetate is used as protection group and pyridine —SO3 complex as the sulfating agent. Deprotection with an excess of 0.8M NaOH in MeOH-water provides the desired hydroxy sulfate, which is investigated, for PPARγ-activity in the ligand-activated-coactivator receptor assay described above.

3T3-L1 fibroblasts = conditions: 200 nM
Experimental: 3T3L1 fibroblasts from ATCC (embryonic muscle cell-line) batch F-12732 (batch-date 930301) were grown in 500 ml of DMEM, 50 ml of fetal bovine serum (FBS) and 11 ml of PEST. Medium was changed every second day. Cells were passaged when they were 80% confluent.
For differentiating purpose fibroblasts were Incubated in DMEM+10% FCS+5 kg/ml of insulin. 0.1 mM of IBMX and 0.25 μM of dexametason was added. After 2 days cells were transferred to DMEM+10% FCS+5 μg/ml Insulin. Medium was then changed every second day and consisted of DMEM+10% FCS. […] This served as positive control for differentiation.
Fibroblasts were also incubated with the same solutions except that IBMX and dexamethasone were exchanged with solutions of 17α-AED in ethanol and water, making the concentration of 17α-AED 100 or 200 nM in the cultures. Cultures were kept in incubator until confluent.

[3] = test system: Dunning AT-1 rat prostate cancer

T1 sequence (P37238 whole entry): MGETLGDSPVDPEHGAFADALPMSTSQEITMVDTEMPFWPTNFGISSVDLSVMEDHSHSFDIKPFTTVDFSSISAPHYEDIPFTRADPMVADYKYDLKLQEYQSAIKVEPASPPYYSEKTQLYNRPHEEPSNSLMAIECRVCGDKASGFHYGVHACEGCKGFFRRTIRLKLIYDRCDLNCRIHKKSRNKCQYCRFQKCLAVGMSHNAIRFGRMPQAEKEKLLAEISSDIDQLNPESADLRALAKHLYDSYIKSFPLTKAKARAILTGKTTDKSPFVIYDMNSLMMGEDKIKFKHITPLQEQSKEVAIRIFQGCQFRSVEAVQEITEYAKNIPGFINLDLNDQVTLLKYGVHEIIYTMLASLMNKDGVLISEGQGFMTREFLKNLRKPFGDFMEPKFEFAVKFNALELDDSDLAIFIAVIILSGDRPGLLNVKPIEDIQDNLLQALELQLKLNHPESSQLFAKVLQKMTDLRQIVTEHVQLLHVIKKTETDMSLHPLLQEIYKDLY
T1 sequence (Q15788 whole entry partner): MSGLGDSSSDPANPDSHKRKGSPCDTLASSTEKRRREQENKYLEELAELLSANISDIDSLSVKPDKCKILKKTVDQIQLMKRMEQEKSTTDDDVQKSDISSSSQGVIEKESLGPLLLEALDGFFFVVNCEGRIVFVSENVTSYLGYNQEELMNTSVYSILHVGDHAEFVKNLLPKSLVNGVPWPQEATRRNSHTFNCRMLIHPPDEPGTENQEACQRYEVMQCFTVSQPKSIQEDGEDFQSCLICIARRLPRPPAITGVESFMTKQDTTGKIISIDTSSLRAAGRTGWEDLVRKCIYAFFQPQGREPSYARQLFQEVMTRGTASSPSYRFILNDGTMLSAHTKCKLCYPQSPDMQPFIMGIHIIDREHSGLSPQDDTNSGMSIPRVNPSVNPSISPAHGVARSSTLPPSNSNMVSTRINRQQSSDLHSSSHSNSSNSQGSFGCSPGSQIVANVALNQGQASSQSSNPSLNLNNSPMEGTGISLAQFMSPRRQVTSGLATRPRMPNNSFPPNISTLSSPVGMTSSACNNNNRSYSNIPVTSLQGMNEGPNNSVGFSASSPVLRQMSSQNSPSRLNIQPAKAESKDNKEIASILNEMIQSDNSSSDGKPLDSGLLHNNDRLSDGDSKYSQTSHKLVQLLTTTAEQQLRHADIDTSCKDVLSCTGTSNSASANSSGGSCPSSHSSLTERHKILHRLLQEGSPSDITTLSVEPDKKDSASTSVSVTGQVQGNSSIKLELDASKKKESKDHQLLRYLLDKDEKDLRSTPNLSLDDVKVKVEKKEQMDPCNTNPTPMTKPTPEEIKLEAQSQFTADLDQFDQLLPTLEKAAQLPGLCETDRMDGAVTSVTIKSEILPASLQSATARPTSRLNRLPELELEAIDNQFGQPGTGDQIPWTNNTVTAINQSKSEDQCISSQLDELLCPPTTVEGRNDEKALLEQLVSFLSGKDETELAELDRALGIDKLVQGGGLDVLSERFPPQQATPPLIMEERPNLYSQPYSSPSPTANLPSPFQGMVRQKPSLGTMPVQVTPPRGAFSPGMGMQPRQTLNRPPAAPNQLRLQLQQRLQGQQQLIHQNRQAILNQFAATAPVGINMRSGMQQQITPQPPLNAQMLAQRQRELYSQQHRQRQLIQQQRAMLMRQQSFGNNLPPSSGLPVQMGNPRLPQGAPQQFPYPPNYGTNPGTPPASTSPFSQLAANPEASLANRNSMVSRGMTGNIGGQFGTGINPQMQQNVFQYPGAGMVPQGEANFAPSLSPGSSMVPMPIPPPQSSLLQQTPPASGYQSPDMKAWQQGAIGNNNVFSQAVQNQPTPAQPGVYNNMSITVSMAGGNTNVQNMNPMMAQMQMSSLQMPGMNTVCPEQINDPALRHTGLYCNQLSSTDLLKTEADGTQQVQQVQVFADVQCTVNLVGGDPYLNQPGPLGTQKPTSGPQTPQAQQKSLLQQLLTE

| SMILES | programmed cell death compared to control (TUNEL) [1] | tumour appearance (morphology) [2] | PPARγ-ligand activity of the steroid per se (PPARγ) | band in coactivator assay, steroid incubated with liver cytosol (PPARγ) | PPARγ-ligand activity, steroid + liver cytosol + PAPS (PPARγ; second experiment, active liver cytosol, sulfate formed in situ) | PPARγ-ligand activity, native steroid + liver cytosol (PPARγ; second experiment, without PAPS) | cell proliferation (3T3-L1 fibroblasts) | mean S-phase ([3]; treated Dunning AT-1 samples, untreated 25.5%) [%] | Proportion of cells in G1 ([3]; treated tumours, control tumours 59%) [%] |
| --- | --- | --- | --- | --- | --- | --- | --- | --- | --- |
| C[C@]12CC[C@H]3[C@@H](CC=C4C[C@@H](O)CC[C@@]43C)[C@@H]1CC[C@H]2O [Compound 17α-AED, androstene-3β,17α-diol] | no sign of increased programmed cell death | devitalized tumour tissue in circumscribed areas | No sign of transcription pointing to a ligand activity | band was extinguished | significant difference in signal | insignificant responses | marked inhibition of cell proliferation | 45.3 | 35 |
| C[C@]12CC[C@H]3[C@@H](CC=C4C[C@@H](O)CC[C@@]43C)[C@@H]1CC[C@@H]2O [Compound 17β-AED, reference compound] | – | – | No sign of transcription pointing to a ligand activity | identical result | – | – | – | – | – |
